The results in this text go back to ChEMBL document CHEMBL5046282, “Discovery of Brain-Penetrant Glucosylceramide Synthase Inhibitors with a Novel Pharmacophore” (J Med Chem, 2022).

Residue numbers refer to the chain shown, from its start. Calls of active or inactive are those of the source. No cut-off for these calls is given here.

One data set addresses T1, CYP2C8 (Homo sapiens, UniProt P10632).
T1 sequence (P10632 whole entry): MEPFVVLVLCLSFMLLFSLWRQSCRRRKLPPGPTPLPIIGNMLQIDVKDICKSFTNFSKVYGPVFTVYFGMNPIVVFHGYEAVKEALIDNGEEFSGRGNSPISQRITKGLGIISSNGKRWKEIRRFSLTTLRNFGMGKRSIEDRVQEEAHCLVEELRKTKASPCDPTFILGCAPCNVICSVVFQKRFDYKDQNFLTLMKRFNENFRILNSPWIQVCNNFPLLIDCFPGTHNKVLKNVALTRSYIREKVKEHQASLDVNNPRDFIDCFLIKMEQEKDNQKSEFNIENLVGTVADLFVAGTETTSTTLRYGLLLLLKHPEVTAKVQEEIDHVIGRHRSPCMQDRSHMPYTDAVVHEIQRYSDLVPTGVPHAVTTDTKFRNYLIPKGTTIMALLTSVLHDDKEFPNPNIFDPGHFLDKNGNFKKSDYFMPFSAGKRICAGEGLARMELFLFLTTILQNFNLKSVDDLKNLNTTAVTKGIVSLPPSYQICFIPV
Description: Inhibition of CYP2C8 in human liver microsomes using paclitaxel as substrate at 10 uM in presence of NADPH generating system incubated for 10 mins. As to conditions: probe paclitaxel. The data set is classed as ADME. (In general: Liver microsomes are a subcellular fraction often used to study metabolism.)

In a further data set the target is Cav1.2 (Homo sapiens, UniProt Q13936). As to the kind of experiment: Inhibition of human Cav1.2 expressed in HEK293 cells at 30 uM by automated electrophysiology QPatch HT assay. The data set is classed as toxicity, cell-based. As to conditions: HEK293 cells expressing Cav1.2.
Chain of Cav1.2 (Q13936 whole entry): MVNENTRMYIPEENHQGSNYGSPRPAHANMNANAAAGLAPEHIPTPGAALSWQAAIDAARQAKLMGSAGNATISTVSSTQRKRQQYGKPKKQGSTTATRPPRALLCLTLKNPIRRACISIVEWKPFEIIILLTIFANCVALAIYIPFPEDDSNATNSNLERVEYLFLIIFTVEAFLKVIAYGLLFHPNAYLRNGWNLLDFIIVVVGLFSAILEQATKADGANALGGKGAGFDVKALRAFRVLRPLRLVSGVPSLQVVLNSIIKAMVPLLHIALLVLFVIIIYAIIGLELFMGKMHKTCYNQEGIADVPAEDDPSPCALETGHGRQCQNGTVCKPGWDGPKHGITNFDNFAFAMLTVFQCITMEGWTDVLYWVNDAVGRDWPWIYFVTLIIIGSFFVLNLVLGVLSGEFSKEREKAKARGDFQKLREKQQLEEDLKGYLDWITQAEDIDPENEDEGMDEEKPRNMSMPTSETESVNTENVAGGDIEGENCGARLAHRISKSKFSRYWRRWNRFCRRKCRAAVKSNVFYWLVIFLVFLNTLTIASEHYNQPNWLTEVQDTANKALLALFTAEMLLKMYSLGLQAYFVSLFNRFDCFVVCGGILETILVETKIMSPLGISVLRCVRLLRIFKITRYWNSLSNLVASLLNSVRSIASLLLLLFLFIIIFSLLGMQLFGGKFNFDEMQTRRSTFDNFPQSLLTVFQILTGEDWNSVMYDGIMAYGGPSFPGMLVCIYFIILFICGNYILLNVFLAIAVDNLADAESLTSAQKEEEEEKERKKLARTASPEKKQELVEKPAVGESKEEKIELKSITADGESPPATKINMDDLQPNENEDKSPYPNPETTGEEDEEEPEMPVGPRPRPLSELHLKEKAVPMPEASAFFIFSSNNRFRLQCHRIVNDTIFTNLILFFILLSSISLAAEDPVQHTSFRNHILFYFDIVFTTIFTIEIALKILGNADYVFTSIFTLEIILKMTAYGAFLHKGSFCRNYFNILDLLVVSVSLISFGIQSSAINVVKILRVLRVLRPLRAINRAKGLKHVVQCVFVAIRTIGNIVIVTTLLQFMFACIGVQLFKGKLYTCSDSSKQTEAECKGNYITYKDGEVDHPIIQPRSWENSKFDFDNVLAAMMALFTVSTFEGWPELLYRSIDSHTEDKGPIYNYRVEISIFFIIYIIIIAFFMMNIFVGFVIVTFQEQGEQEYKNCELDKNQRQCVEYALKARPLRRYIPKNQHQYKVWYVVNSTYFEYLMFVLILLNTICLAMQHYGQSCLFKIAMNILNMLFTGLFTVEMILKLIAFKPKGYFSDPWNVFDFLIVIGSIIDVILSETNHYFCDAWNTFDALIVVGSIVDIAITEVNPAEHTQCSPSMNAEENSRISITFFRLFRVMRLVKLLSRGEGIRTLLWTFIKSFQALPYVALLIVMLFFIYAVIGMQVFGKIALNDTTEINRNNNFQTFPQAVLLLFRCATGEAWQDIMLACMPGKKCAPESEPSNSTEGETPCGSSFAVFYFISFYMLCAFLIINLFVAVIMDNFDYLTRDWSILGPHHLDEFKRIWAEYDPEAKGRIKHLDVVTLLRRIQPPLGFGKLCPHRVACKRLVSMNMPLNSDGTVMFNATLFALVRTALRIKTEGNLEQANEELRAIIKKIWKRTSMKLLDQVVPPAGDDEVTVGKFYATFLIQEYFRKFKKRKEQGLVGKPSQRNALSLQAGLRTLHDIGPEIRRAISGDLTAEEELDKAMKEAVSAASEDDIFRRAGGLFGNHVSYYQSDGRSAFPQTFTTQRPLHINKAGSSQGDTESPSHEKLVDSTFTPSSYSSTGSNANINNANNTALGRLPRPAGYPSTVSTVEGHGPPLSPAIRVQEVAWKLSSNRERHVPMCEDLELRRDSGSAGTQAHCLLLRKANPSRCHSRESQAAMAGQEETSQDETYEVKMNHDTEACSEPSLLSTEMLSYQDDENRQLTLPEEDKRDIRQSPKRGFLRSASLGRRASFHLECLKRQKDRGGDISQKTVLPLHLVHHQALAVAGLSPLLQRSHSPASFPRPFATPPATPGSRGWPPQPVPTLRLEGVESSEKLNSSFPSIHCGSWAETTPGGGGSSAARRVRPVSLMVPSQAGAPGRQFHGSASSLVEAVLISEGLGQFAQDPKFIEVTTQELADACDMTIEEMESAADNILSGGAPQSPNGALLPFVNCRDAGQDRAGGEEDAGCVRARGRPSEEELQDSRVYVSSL
A short description of data set [1]: Selectivity index, ratio of IC50 for mouse GCS to IC50 for human GCS.
Data set [2] in a line: Unbound drug concentration in brain of non-fasted ICR mouse at 30 mg/kg, po measured after 1 hr by LC-MS/MS analysis. Format: ADME, organism-based. As to conditions: in vivo.
Data set [3] is described as follows: MRT in non-fasted ICR mouse at 0.5 mg/kg, iv by LC-MS/MS analysis. Format: ADME, organism-based. As to conditions: in vivo.
The next data set deals with CYP3A4 (Homo sapiens, UniProt P08684). As to the kind of experiment: Inhibition of CYP3A4 in human liver microsomes using midazolam as substrate at 10 uM in presence of NADPH generating system incubated for 10 mins. As to conditions: probe midazolam. The data set is classed as ADME.
Chain of CYP3A4 (P08684 whole entry): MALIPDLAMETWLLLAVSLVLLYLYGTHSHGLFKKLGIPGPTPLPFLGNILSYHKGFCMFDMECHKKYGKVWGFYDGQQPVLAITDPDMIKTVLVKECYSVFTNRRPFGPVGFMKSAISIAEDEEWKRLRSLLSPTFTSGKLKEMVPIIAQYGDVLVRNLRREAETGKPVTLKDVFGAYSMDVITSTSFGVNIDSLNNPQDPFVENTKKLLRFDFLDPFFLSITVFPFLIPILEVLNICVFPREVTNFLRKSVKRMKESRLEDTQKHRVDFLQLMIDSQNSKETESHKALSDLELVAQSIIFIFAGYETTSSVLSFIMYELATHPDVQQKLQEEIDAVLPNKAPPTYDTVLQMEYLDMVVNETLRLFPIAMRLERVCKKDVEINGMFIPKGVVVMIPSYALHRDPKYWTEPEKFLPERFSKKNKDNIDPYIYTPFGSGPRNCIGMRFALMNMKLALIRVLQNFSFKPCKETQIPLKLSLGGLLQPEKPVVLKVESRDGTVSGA
A short description of data set [4]: Volume of distribution at steady state in non-fasted ICR mouse at 0.5 mg/kg, iv by LC-MS/MS analysis. As to conditions: in vivo, read-out: Vdss. The data set is classed as ADME, organism-based.
Data set [5] can be described thus: Intrinsic clearance in human liver microsomes at 1 uM in presence of NADPH generating system assessed per mg protein by LC-MS/MS analysis. Format: ADME, Microsome. As to conditions: read-out: CLH.
Data set [6] addresses T2, Ceramide glucosyltransferase (Homo sapiens) (UniProt Q16739).
T2 sequence (whole entry): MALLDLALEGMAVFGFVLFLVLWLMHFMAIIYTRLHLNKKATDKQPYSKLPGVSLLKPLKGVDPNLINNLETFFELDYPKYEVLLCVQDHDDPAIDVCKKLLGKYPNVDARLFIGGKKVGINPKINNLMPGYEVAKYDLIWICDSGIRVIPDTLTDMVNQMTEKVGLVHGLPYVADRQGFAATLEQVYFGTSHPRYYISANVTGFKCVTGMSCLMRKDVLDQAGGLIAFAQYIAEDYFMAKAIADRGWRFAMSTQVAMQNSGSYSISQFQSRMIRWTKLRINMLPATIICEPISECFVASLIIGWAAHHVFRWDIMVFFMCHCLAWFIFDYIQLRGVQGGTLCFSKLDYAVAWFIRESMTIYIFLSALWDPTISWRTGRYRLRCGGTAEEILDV
As to the kind of experiment: Non-competitive inhibition of GCS (unknown origin) using 1 to 70 uM C8-ceramide and 0.1 to 200 uM UDP-glucose as substrate incubated for 1 hr by RapidFire mass spectrometry.

A further data set deals with Mus musculus. As to the kind of experiment: In vivo inhibition of GCS activity in po dosed C57BL/6J mouse assessed as reduction in GlcCer level in plasma measured after 6 hrs. Format: functional, organism-based. As to conditions: dose 30-300 mg/kg.
Data set [7] addresses Sodium-dependent serotonin transporter (Homo sapiens, UniProt P31645). As to the kind of experiment: Inhibition of human SERT. The data set is classed as toxicity.
In data set [8] the target is T3, Ceramide glucosyltransferase (Mus musculus, UniProt O88693).
T3 sequence (O88693 whole entry): T2 sequence (whole entry) with L8Q, V13L, L20V, A29S, G131A, Y196S, A251S
Description: Inhibition of mouse GCS using C8-ceramide and UDP-glucose as substrate incubated for 1 hr by RapidFire mass spectrometry.

Data set [9] in a line: Cardiotoxicity in human iPSC-derived cardiomyocytes assessed as induction of proarrhythmic activity at 10 uM by Fluo-4 dye based fluorescence analysis. As to conditions: cardiac muscle cell. The data set is classed as toxicity.
The nature of data set [10]: Efflux ratio of apparent permeability from basolateral to apical side over apical to basolateral side in dog MDCK-MDR1 cells at 1 uM measured after 1 hr by LC-MS/MS analysis. The data set is classed as ADME, cell-based, Canis lupus familiaris.

As usually defined, the inhibition is the change of the read-out against control, counted positive when it falls. As usually defined, the MRT is the average time that molecules of a dose stay in the body. A word on the IC50: it is the concentration needed to halve the response being measured. Higher therefore signals weaker potency. The efflux ratio is a quotient of directional permeabilities that is used to spot active efflux.

Chain of Sodium-dependent serotonin transporter (P31645 whole entry): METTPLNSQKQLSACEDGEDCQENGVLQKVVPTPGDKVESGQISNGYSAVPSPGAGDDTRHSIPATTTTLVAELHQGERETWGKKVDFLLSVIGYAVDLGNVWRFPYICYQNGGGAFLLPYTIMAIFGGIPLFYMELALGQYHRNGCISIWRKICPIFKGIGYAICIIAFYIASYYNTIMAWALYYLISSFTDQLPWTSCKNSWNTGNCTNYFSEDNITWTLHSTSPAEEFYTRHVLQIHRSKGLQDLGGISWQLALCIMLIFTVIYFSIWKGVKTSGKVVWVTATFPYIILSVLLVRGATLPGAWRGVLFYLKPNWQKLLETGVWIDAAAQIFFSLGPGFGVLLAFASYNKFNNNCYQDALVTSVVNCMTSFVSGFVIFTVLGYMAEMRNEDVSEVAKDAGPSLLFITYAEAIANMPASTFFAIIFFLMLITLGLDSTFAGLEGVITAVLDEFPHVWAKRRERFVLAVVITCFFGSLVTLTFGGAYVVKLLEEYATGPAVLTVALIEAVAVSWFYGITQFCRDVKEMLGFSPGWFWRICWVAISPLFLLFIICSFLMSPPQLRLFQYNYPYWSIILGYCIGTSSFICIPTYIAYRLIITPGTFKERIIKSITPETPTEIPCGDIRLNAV

As to `CC(C)(O)c1ccc(NC(=O)c2ccnn(-c3ccccc3OCC(F)(F)F)c2=O)cc1`, the results for the inhibition at 10 min, 10 µM at CYP2C8 and at CYP3A4 were 34.2% and -4.8%, respectively. For the same compound, the inhibition at 30 µM at Cav1.2 was 7.3%. In data set [1], the Ratio IC50 worked out at 12.7. Further, the “Drug uptake(free)” value in [2] is 0.21 µM. In data set [3], this compound came in with an MRT of 1.03 h. In addition, the Vd in data set [4] came to 1.97 L/kg. For the same compound, the microsomal CLint at 1 µM in data set [5] was found to be 32 µL/min/mg. For the same compound, the inhibition entry in data set [6] was “Active”. In addition, the inhibition result in the data set on Mus musculus is “Dose-Dependent Effect”. Also, the 50% inhibitory concentration (IC50) in data set [7] is over 10000 nM; in data set [8], 190 nM. In data set [9], the Activity result is “Non-Toxic”. Moreover, the efflux ratio at 1 h, 1 µM in [10] worked out at 8.8.
